Reference: article PMC6934184, “Selective DNA-PKcs inhibition extends the therapeutic index of localized radiotherapy and chemotherapy” (The Journal of Clinical Investigation, 2019)

Biological target: T1, NEK2 (Homo sapiens, UniProt P51955)
T1 construct: purchased Thermo Fisher Scientific (Life Technologies) SelectScreen
Assay: SelectScreen Z'LYTE
Assay type: biochemical
In short: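 SelectScreen broad panel; activity (Z'LYTE, Adapta) plus binding formats. ATP: Km app for CSF1R Z'LYTE; 10 for CAMK1 Adapta. Readout = % per kinase.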

T1 sequence (P51955 whole entry): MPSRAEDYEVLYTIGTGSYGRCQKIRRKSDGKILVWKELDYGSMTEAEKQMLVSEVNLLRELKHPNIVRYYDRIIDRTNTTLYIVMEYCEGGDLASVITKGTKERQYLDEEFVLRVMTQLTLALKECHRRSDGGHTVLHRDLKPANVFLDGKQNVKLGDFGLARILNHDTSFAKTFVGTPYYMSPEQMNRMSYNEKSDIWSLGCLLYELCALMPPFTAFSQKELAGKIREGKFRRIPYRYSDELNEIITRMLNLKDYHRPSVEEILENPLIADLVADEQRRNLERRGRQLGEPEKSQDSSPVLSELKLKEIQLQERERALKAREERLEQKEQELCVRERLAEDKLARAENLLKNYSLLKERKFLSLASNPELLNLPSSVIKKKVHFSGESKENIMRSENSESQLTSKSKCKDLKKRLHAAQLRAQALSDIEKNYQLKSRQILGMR

CN(C(=O)CN1CCOCC1)c1ccc2sc3c(-c4cccc5c(=O)cc(N6CC7CCC(C6)O7)oc45)cccc3c2c1 [NU5455]
inhibition at 1 µM: 17.8%
